Assay results published in patent publication US4442044A, “Process for preparing monoesters and diesters of N-alkyl substituted amino methyl phosphonic acid” (priority 1983, dated 1984).

Experiments:
Assay type in all cases: in vivo
[1] = system: Barnyardgrass; assay: post-emergent herbicidal activity, greenhouse; conditions: 4 WAT
Method in brief: (§1)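 Post-emergence foliar spray at tabulated application rates, using aliquots of a 1.0% stock in acetone, THF or water plus ~0.4% emulsifier, applied to 2–3-week-old greenhouse plants. Plant injury was rated relative to controls roughly two and four weeks after treatment.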

[2] = system: Cocklebur; assay: post-emergent herbicidal activity, greenhouse; conditions: Table II, 4 WAT
Method in brief: as §1

[3] = system: Crabgrass; assay: post-emergent herbicidal activity, greenhouse; conditions: Table II, 4 WAT
Method in brief: as §1

[4] = system: Downy Brome; assay: post-emergent herbicidal activity, greenhouse; conditions: Table II, 4 WAT
Method in brief: as §1

[5] = system: Hemp Sesbania; assay: post-emergent herbicidal activity, greenhouse; conditions: Table II, 4 WAT
Method in brief: as §1

[6] = system: Lambsquarters; assay: post-emergent herbicidal activity, greenhouse; conditions: 4 WAT
Method in brief: as §1

[7] = system: Morningglory; assay: post-emergent herbicidal activity, greenhouse; conditions: 4 WAT
Method in brief: as §1

[8] = system: Panicum Spp; assay: post-emergent herbicidal activity, greenhouse; conditions: Table II, 4 WAT
Method in brief: as §1

[9] = system: Quackgrass; assay: post-emergent herbicidal activity, greenhouse; conditions: Table I, 4 WAT, 11.2 kg/h
Method in brief: as §1

[10] = system: Rice; assay: post-emergent herbicidal activity, greenhouse; conditions: Table II, 4 WAT
Method in brief: as §1

[11] = system: Smartweed; assay: post-emergent herbicidal activity, greenhouse; conditions: 4 WAT
Method in brief: as §1

[12] = system: Sorghum; assay: post-emergent herbicidal activity, greenhouse; conditions: Table II, 4 WAT
Method in brief: as §1

[13] = system: Soybean; assay: post-emergent herbicidal activity, greenhouse; conditions: Table II, 4 WAT
Method in brief: as §1

[14] = system: Sugar Beet; assay: post-emergent herbicidal activity, greenhouse; conditions: Table II, 4 WAT
Method in brief: as §1

[15] = system: Velvetleaf; assay: post-emergent herbicidal activity, greenhouse; conditions: 4 WAT
Method in brief: as §1

[16] = system: Wheat; assay: post-emergent herbicidal activity, greenhouse; conditions: Table II, 4 WAT
Method in brief: as §1

[17] = system: Wild Buckwheat; assay: post-emergent herbicidal activity, greenhouse; conditions: Table II, 4 WAT
Method in brief: as §1

[18] = system: Yellow Nutsedge; assay: post-emergent herbicidal activity, greenhouse; conditions: Table I, 4 WAT, 5.6 kg/h
Method in brief: as §1

[19] = system: Barnyardgrass; assay: pre-emergent herbicidal activity, soil incorporation; conditions: Table III, 2 WAT, 11.2 kg/h
Source text: (§2) A good grade of top soil is placed in aluminum pans and compacted to a depth of 0.95 to 1.27 cm. from the top of each pan. A predetermined number of seeds or vegetative propagules of each of several plant species are placed on top of the soil in each pan and then pressed down. Herbicidal compositions prepared as in the previous example are applied by admixture with or incorporation in the top layer of soil.
(§3) In this method, the soil required to cover the seeds and propagules is weighed and admixed with a herbicidal composition containing a known amount of the active ingredient (compound of this invention). The pans are then filled with the admixture and leveled. Watering is carried out by permitting the soil in the pans to absorb moisture through apertures in the pan bottoms. The seed and propagule containing pans are placed on a wet sand bench and maintained for approximately two weeks under ordinary conditions of sunlight and watering. At the end of this period, the number of emerged plants of each species is noted and compared to an untreated control.
(§4) The pre-emergent herbicidal activity index used below is based upon average percent control of each species as follows: […]

[20] = system: Canada Thistle; assay: as above; conditions: Table III, 2 WAT, 11.2 kg/h
Source text: as §2, §3, §4

[21] = system: Cocklebur; assay: as above; conditions: Table III, 2 WAT, 11.2 kg/h
Source text: as §2, §3, §4

[22] = system: Downy Brome; assay: as above; conditions: Table III, 2 WAT, 11.2 kg/h
Source text: as §2, §3, §4

[23] = system: Johnsongrass; assay: as above; conditions: Table III, 2 WAT, 11.2 kg/h
Source text: as §2, §3, §4

[24] = system: Lambsquarters; assay: as above; conditions: Table III, 2 WAT, 11.2 kg/h
Source text: as §2, §3, §4

[25] = system: Morningglory; assay: as above; conditions: Table III, 2 WAT, 11.2 kg/h
Source text: as §2, §3, §4

[26] = system: Quackgrass; assay: as above; conditions: Table III, 2 WAT, 11.2 kg/h
Source text: as §2, §3, §4

[27] = system: Smartweed; assay: as above; conditions: Table III, 2 WAT, 11.2 kg/h
Source text: as §2, §3, §4

[28] = system: Velvetleaf; assay: as above; conditions: Table III, 2 WAT, 11.2 kg/h
Source text: as §2, §3, §4

[29] = system: Yellow Nutsedge; assay: as above; conditions: Table III, 2 WAT, 11.2 kg/h
Source text: as §2, §3, §4

## CCOC(=O)CNCP(=O)(O)OC(C)C#N (stereo not drawn) [Example 5, glycine, N-[[(1-cyanoethoxy)hydroxy-phosphinyl]methyl]ethyl ester]
[1]; Table I, 5.6 kg/h
  post-emergent herbicidal activity index: 4 (100% control)
[1]; Table I, 11.2 kg/h
  post-emergent herbicidal activity index: 4 (100% control)
[1]; Table II, 0.28 kg/h
  post-emergent herbicidal activity index: 3 (75-99% control)
[1]; Table II, 1.12 kg/h
  post-emergent herbicidal activity index: 3 (75-99% control)
[1]; Table II, 5.6 kg/h
  post-emergent herbicidal activity index: 4 (100% control)
[2]; 0.28 kg/h
  post-emergent herbicidal activity index: 2 (50-74% control)
[2]; 1.12 kg/h
  post-emergent herbicidal activity index: 2 (50-74% control)
[2]; 5.6 kg/h
  post-emergent herbicidal activity index: 4 (100% control)
[3]; 0.28 kg/h
  post-emergent herbicidal activity index: 3 (75-99% control)
[3]; 1.12 kg/h
  post-emergent herbicidal activity index: 4 (100% control)
[3]; 5.6 kg/h
  post-emergent herbicidal activity index: 4 (100% control)
[4]; 0.28 kg/h
  post-emergent herbicidal activity index: 1 (25-49% control)
[4]; 1.12 kg/h
  post-emergent herbicidal activity index: 2 (50-74% control)
[4]; 5.6 kg/h
  post-emergent herbicidal activity index: 3 (75-99% control)
[5]; 0.28 kg/h
  post-emergent herbicidal activity index: 1 (25-49% control)
[5]; 1.12 kg/h
  post-emergent herbicidal activity index: 2 (50-74% control)
[5]; 5.6 kg/h
  post-emergent herbicidal activity index: 3 (75-99% control)
[6]; Table I, 11.2 kg/h
  post-emergent herbicidal activity index: 4 (100% control)
[6]; Table II, 0.28 kg/h
  post-emergent herbicidal activity index: 2 (50-74% control)
[6]; Table II, 1.12 kg/h
  post-emergent herbicidal activity index: 4 (100% control)
[6]; Table II, 5.6 kg/h
  post-emergent herbicidal activity index: 4 (100% control)
[7]; Table I, 5.6 kg/h
  post-emergent herbicidal activity index: 3 (75-99% control)
[7]; Table I, 11.2 kg/h
  post-emergent herbicidal activity index: 4 (100% control)
[7]; Table II, 0.28 kg/h
  post-emergent herbicidal activity index: 2 (50-74% control)
[7]; Table II, 1.12 kg/h
  post-emergent herbicidal activity index: 2 (50-74% control)
[7]; Table II, 5.6 kg/h
  post-emergent herbicidal activity index: 4 (100% control)
[8]; 0.28 kg/h
  post-emergent herbicidal activity index: 3 (75-99% control)
[8]; 1.12 kg/h
  post-emergent herbicidal activity index: 4 (100% control)
[8]; 5.6 kg/h
  post-emergent herbicidal activity index: 4 (100% control)
[9]
  post-emergent herbicidal activity index: 4 (100% control)
[10]; 0.28 kg/h
  post-emergent herbicidal activity index: 0 (0-24% control)
[10]; 1.12 kg/h
  post-emergent herbicidal activity index: 2 (50-74% control)
[10]; 5.6 kg/h
  post-emergent herbicidal activity index: 4 (100% control)
[11]; Table I, 5.6 kg/h
  post-emergent herbicidal activity index: 4 (100% control)
[11]; Table I, 11.2 kg/h
  post-emergent herbicidal activity index: 4 (100% control)
[11]; Table II, 0.28 kg/h
  post-emergent herbicidal activity index: 2 (50-74% control)
[11]; Table II, 1.12 kg/h
  post-emergent herbicidal activity index: 4 (100% control)
[11]; Table II, 5.6 kg/h
  post-emergent herbicidal activity index: 4 (100% control)
[12]; 0.28 kg/h
  post-emergent herbicidal activity index: 3 (75-99% control)
[12]; 1.12 kg/h
  post-emergent herbicidal activity index: 3 (75-99% control)
[12]; 5.6 kg/h
  post-emergent herbicidal activity index: 4 (100% control)
[13]; 0.28 kg/h
  post-emergent herbicidal activity index: 1 (25-49% control)
[13]; 1.12 kg/h
  post-emergent herbicidal activity index: 2 (50-74% control)
[13]; 5.6 kg/h
  post-emergent herbicidal activity index: 4 (100% control)
[14]; 0.28 kg/h
  post-emergent herbicidal activity index: 1 (25-49% control)
[14]; 1.12 kg/h
  post-emergent herbicidal activity index: 2 (50-74% control)
[14]; 5.6 kg/h
  post-emergent herbicidal activity index: 4 (100% control)
[15]; Table I, 11.2 kg/h
  post-emergent herbicidal activity index: 4 (100% control)
[15]; Table II, 0.28 kg/h
  post-emergent herbicidal activity index: 1 (25-49% control)
[15]; Table II, 1.12 kg/h
  post-emergent herbicidal activity index: 2 (50-74% control)
[15]; Table II, 5.6 kg/h
  post-emergent herbicidal activity index: 4 (100% control)
[16]; 0.28 kg/h
  post-emergent herbicidal activity index: 1 (25-49% control)
[16]; 1.12 kg/h
  post-emergent herbicidal activity index: 3 (75-99% control)
[16]; 5.6 kg/h
  post-emergent herbicidal activity index: 4 (100% control)
[17]; 0.28 kg/h
  post-emergent herbicidal activity index: 0 (0-24% control)
[17]; 1.12 kg/h
  post-emergent herbicidal activity index: 2 (50-74% control)
[17]; 5.6 kg/h
  post-emergent herbicidal activity index: 4 (100% control)
[18]
  post-emergent herbicidal activity index: 3 (75-99% control)
[19]
  pre-emergent herbicidal activity index: 0 (1-24% control)
[20]
  pre-emergent herbicidal activity index: 3 (75-100% control)
[21]
  pre-emergent herbicidal activity index: 0 (1-24% control)
[22]
  pre-emergent herbicidal activity index: 0 (1-24% control)
[23]
  pre-emergent herbicidal activity index: 0 (1-24% control)
[24]
  pre-emergent herbicidal activity index: 3 (75-100% control)
[25]
  pre-emergent herbicidal activity index: 0 (1-24% control)
[26]
  pre-emergent herbicidal activity index: 2 (50-74% control)
[27]
  pre-emergent herbicidal activity index: 0 (1-24% control)
[28]
  pre-emergent herbicidal activity index: 0 (1-24% control)
[29]
  pre-emergent herbicidal activity index: 1 (25-49% control)
